Reference: the supplement of paper PMC5908809

Assays:
[1] = test system: normal NK cells expanded with K562-aAPC; test: drug sensitivity score (DSS) (DSS units); higher = more sensitive; extreme values may be limits of the assay; conditions: 72 h; IL-2 2.5 ng/mL
Procedure: (§1)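 Drug sensitivity and resistance testing on K562-aAPC-expanded normal NK cells: 5 concentrations (10-fold steps over a 10,000-fold range), 72 h at 37 °C, viability by CellTiter-Glo normalised to DMSO and benzethonium chloride controls; DSS from the fitted curve.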

NK-92 (IL-2 2.5 ng/mL) [2] = test: as above; conditions: 72 h
NK-YS (IL-2 2.5 ng/mL) [3] = test: as above; conditions: 72 h
[4] = test system: normal primary NK cells, pool 3 (3 donors) (IL-2 2.5 ng/mL); test: as above; conditions: 72 h
[5] = test system: normal primary NK cells, pool 1 (3 donors), resting (IL-2 0 ng/mL); test: as above; conditions: 72 h
KHYG-1 (IL-2 2.5 ng/mL) [6] = test: as above; conditions: 72 h
[7] = test system: normal primary NK cells, pool 1 (3 donors) (IL-2 2.5 ng/mL); test: as above; conditions: 72 h
[8] = test system: normal primary NK cells, pool 2 (3 donors) (IL-2 2.5 ng/mL); test: as above; conditions: 72 h
SNK-6 (IL-2 2.5 ng/mL) [9] = test: as above; conditions: 72 h
KAI3 (IL-2 2.5 ng/mL) [10] = test: as above; conditions: 72 h
NKL (IL-2 2.5 ng/mL) [11] = test: as above; conditions: 72 h
IMC-1 (IL-2 20 ng/mL) [12] = test: as above; conditions: 72 h
YT (IL-2 2.5 ng/mL) [13] = test: as above; conditions: 72 h
DERL-7 (IL-2 2.5 ng/mL) [14] = test: as above; conditions: 72 h
NK-92 (IL-2 2.5 ng/mL) [15] = test: percent inhibition of viability; higher = more inhibition; conditions: 72 h
NK-YS (IL-2 2.5 ng/mL) [16] = test: as above; conditions: 72 h
[17] = test system: normal primary NK cells, pool 3 (3 donors) (IL-2 2.5 ng/mL); test: as above; conditions: 72 h
[18] = test system: normal primary NK cells, pool 1 (3 donors), resting (IL-2 0 ng/mL); test: as above; conditions: 72 h
KHYG-1 (IL-2 2.5 ng/mL) [19] = test: as above; conditions: 72 h
[20] = test system: normal primary NK cells, pool 1 (3 donors) (IL-2 2.5 ng/mL); test: as above; conditions: 72 h
[21] = test system: normal primary NK cells, pool 2 (3 donors) (IL-2 2.5 ng/mL); test: as above; conditions: 72 h
SNK-6 (IL-2 2.5 ng/mL) [22] = test: as above; conditions: 72 h
KAI3 (IL-2 2.5 ng/mL) [23] = test: as above; conditions: 72 h
NKL (IL-2 2.5 ng/mL) [24] = test: as above; conditions: 72 h
IMC-1 (IL-2 20 ng/mL) [25] = test: as above; conditions: 72 h
YT (IL-2 2.5 ng/mL) [26] = test: as above; conditions: 72 h
DERL-7 (IL-2 2.5 ng/mL) [27] = test: as above; conditions: 72 h
[28] = test system: normal NK cells expanded with K562-aAPC; test: as above; conditions: 72 h, IL-2 2.5 ng/mL
Procedure: as §1

Cc1ncc(-c2ccnc(Nc3ccc(S(C)(=O)=O)cc3)n2)n1C(C)C [AZD-5438] (max concentration tested 10000 nM)
Conditions | drug sensitivity score
DERL-7 (IL-2 2.5 ng/mL) [14] | 10
IMC-1 (IL-2 20 ng/mL) [12] | 10.5
KAI3 (IL-2 2.5 ng/mL) [10] | 11
KHYG-1 (IL-2 2.5 ng/mL) [6] | 11.3
NK-92 (IL-2 2.5 ng/mL) [2] | 5.86
NK-YS (IL-2 2.5 ng/mL) [3] | 12.6
NKL (IL-2 2.5 ng/mL) [11] | 6.34
SNK-6 (IL-2 2.5 ng/mL) [9] | 3.04
YT (IL-2 2.5 ng/mL) [13] | 9.28
[1] | 6.5
[4] | 8.5
[5] | 3.02
[7] | 7.3
[8] | 7.94

percent inhibition of viability [%]
Conditions | 1 nM | 10 nM | 100 nM | 1000 nM | 10000 nM
DERL-7 (IL-2 2.5 ng/mL) [27] | -5.59 | 2.74 | -9.82 | 31.4 | 100
IMC-1 (IL-2 20 ng/mL) [25] | -2.44 | -0.85 | 6.12 | 39.1 | 101
KAI3 (IL-2 2.5 ng/mL) [23] | -3.46 | -9.8 | -5.74 | 41.5 | 102
KHYG-1 (IL-2 2.5 ng/mL) [19] | 0.77 | 0.77 | 0.38 | 45.4 | 105
NK-92 (IL-2 2.5 ng/mL) [15] | -5.15 | -8.65 | -22.7 | -0.77 | 104
NK-YS (IL-2 2.5 ng/mL) [16] | -2.69 | -3.59 | 1.96 | 59.8 | 103
NKL (IL-2 2.5 ng/mL) [24] | -7.07 | -5.93 | -18.1 | 3.89 | 103
SNK-6 (IL-2 2.5 ng/mL) [22] | -9.66 | -5.34 | 6.52 | -1.33 | 58.4
YT (IL-2 2.5 ng/mL) [26] | -1.56 | -0.25 | 0.72 | 24 | 105
[17] | -7.04 | -10.4 | 1.54 | 18.4 | 99.4
[18] | 4.17 | -8.18 | -42.6 | -99.9 | 91.4
[20] | -7.21 | -12.4 | -17.5 | 11.4 | 98
[21] | -12.1 | -8.8 | -8.52 | 15.6 | 96.9
[28] | 0.15 | -0.53 | -5.24 | 6.05 | 101
